Measurements from US20050085447A1, “Pyrido[3,4-d]pyrimidine derivatives as matrix metalloproteinase-13 inhibitors” (Warner-Lambert Company LLC, priority 2003, published 2005).

Assays:
MMP-7 full-length = molecular target: T1, MMP-7 full-length (Homo sapiens, UniProt P09237); experiment: Thiopeptolide substrate hydrolysis inhibition assay, MMP-7 full-length; format: biochemical; details: full-length enzyme; read-out: MMP-7FL IC50
T1 construct: MMP-3 catalytic domain, MMP-7 full-length, MMP-8 full-length
T1 sequence (P09237 95-267): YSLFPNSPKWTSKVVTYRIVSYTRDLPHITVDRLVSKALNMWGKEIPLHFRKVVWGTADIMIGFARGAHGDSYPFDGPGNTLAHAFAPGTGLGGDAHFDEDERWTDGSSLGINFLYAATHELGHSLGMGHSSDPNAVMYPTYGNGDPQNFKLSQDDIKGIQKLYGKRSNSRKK
Description: (§1) The assay methods of Biological Examples 1-4 measure the amount by which a test compound reduces the hydrolysis of a thiopeptolide substrate catalyzed by a matrix metalloproteinase enzyme or catalytic domain thereof. It has been shown previously by Ye Qi-Zhuang, Hupe D., and Johnson L. (Current Medicinal Chemistry, 1996;3:407-418) that inhibitor activity against a catalytic domain of an MMP is predictive of the inhibitor activity against the respective full-length MMP enzyme. The methods described below for the inhibition of MMP-13 may also be adapted and used to determine the ability of the compounds of Formula I to inhibit other matrix metalloproteases such as MMP-1, MMP-2, MMP-3, MMP-7, MMP-8, MMP-9, MMP-12, MMP-14, MMP-17, and the like.
(§2) Thiopeptolide substrates show virtually no decomposition or hydrolysis at or below neutral pH in the absence of a matrix metalloproteinase enzyme. A typical thiopeptolide substrate commonly utilized for assays is Ac-Pro-Leu-Gly-thioester-Leu-Leu-Gly-OEt. A 100 μL assay mixture will contain 50 mM of N-2-hydroxyethylpiperazine-N′-2-ethanesulfonic acid buffer (“HEPES,” pH 7.0), 10 mM CaCl2, 100 μM thiopeptolide substrate, and 1 mM 5,5′-dithio-bis-(2-nitro-benzoic acid) (DTNB). […] The change in absorbance at 405 nm is monitored on a Thermo Max microplate reader (molecular Devices, Menlo Park, Calif.) at room temperature (22° C.). The calculation of the amount of hydrolysis of the thiopeptolide substrate is based on E412=13600 M^−1 cm^−1 for the DTNB-derived product 3-carboxy-4-nitrothiophenoxide. Assays are carried out with and without matrix metalloproteinase inhibitor compounds, and the amount of hydrolysis is compared for a determination of inhibitory activity of the test compounds.
(§3) Test compounds were evaluated at various concentrations in order to determine their respective IC50 values, the micromolar concentration of compound required to cause a 50% inhibition of catalytic activity of the respective enzyme.
(§4) Some representative compounds of Formula I have been evaluated for their ability to inhibit MMP-13, MMP-1FL, MMP-3CD, MMP-7FL, MMP-8FL, MMP-9FL, MMP-12CD, MMP-14CD, and/or MMP-17CD, wherein FL means full-length enzyme and CD means a catalytic domain of the full-length enzyme. Test compounds can be evaluated at various concentrations in order to determine their respective IC50 values, the micromolar concentration of compound required to cause a 50% inhibition of the hydrolytic activity of the respective enzyme.
(§5) Certain compounds of Formula I have also been assayed with MMP-1 full-length, MMP-3 catalytic domain, MMP-7 full-length, MMP-8 full-length, MMP-9 full-length, MMP-12 catalytic domain, MMP-14 catalytic domain, and MMP-17 catalytic domain. […] In Biological Table 2, the compound example numbers for the Compound Examples are indicated in the column labelled “Ex. No.”

MMP-9 full-length = molecular target: T2, MMP-9 full-length (Homo sapiens, UniProt P14780); experiment: Thiopeptolide substrate hydrolysis inhibition assay, MMP-9 full-length; format: biochemical; details: full-length enzyme; read-out: MMP-9FL IC50
T2 construct: MMP-8 full-length, MMP-9 full-length, MMP-12 catalytic domain
Description: as §1, §2, §3, §4, §5

male Wistar rats = experiment: Monosodium iodoacetate-induced osteoarthritis in rat model of cartilage damage (MIA Rat); format: in vivo; details: for inhibition of cartilage erosion (surface area of erosion) versus vehicle control / rats in the treatment group that exhibited no cartilage erosion: 4 weeks
Description: One end result of the induction of osteoarthritis in this model, as determined by histologic analysis, is the development of an osteoarthritic condition within the affected joint, as characterized by the loss of Toluidine blue staining and formation of osteophytes. Associated with the histologic changes is a concentration-dependent degradation of joint cartilage, as evidenced by affects on hind-paw weight distribution of the limb containing the affected joint, the presence of increased amounts of proteoglycan or hydroxyproline in the joint upon biochemical analysis, or histopathological analysis of the osteoarthritic lesions.
In the MIA Rat model on Day 0, the hind-paw weight differentials between the right arthritic joint and the left healthy joint of male Wistar rats (150 g) were determined with an incapacitance tester, model 2KG (Linton Instrumentation, Norfolk, United Kingdom). […] Then the rats were anesthetized with isofluorine, and the right, hind leg knee joint was injected with 1.0 mg of mono-iodoacetate (“MIA”) through the infrapatellar ligament. […] The rats were further administered either the compound of Compound Example 1 or vehicle (in the instant case, water) daily for 14 days or 28 days. The compound of Compound Example 1 was administered at doses of 1, 3, 10, and 30 milligrams per kilogram of rat per day, but invention compounds may be administered at other doses such as, for example, 60 mg/kg/day, 90-mg/kg/day, or 100 mg/kg/day according to the requirements of the compound being studied. It is well within the level of ordinary skill in the pharmaceutical arts to determine a proper dosage of an invention compound in this model.
Generally, an invention compound may be administered in this model by oral administration, but optionally intravenous administration via an osmotic pump could be employed. After 7 and 14 days for a two-week study, or 7, 14, and 28 days for a four-week study, the hind-paw weight distribution may be determined. […] This change in weight distribution was proportional to the degree of joint cartilage damage. Percent inhibition of a change in hind paw joint function was calculated as the percent change in hind-paw weight distribution for treated animals versus control animals. For example, for a two week study,
In the present study the compound of Compound Example 1 was administered perorally, and hind-paw weight differentials were determined at both 2 and 4 weeks. Further, in order to detect the presence of erosion of cartilage in the joints, the animals in the above study were sacrificed at 4 weeks, and the presence or absence of cartilage erosion was determined. The proportion of subjects without hind limb erosions was determined via an Exact Sequential Cochran-Armitage Trend test (SAS® Institute, 1999). The Cochran-Armitage Trend test was employed to determine whether the proportion of positive or “Yes” responders increases or decreases with increasing levels of treatment. For this particular study, it was expected that the number of animals without joint erosions increased with increasing dose.

T2 sequence (P14780 94-707): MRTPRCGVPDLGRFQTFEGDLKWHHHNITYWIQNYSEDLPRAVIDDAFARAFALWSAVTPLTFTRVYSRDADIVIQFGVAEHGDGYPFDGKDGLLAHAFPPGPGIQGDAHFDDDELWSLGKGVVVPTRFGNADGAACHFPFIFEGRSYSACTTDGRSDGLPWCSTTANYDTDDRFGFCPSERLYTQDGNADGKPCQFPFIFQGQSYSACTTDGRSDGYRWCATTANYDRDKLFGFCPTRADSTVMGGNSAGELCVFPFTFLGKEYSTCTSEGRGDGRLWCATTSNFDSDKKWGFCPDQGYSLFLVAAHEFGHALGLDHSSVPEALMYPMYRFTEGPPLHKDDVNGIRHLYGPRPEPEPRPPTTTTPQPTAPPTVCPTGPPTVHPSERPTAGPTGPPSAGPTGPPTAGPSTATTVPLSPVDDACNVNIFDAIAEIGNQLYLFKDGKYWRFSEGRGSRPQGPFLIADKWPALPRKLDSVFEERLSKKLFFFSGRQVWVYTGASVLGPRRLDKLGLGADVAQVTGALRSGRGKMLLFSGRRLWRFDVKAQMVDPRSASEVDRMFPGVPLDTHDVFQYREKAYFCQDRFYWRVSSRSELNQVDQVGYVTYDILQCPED

SMILES: COc1ccc(CNC(=O)c2cc3c(=O)n(Cc4ccc(C(=O)O)cc4)cnc3cn2)cc1 [Compound Example 1, 4-[6-(4-methoxy-benzylcarbamoyl)-4-oxo-4H-pyrido[3,4-d]pyrimidin-3-ylmethyl]-benzoic acid]
- IC50 (MMP-7 full-length): > 100 µM
- IC50 (MMP-9 full-length): > 100 µM
- cartilage erosion versus vehicle control (in words) (male Wistar rats; 2 weeks, 1, 3, 10 and 30 mg/kg orally BID): inhibited in a dose dependent manner cartilage erosion
- inhibition of cartilage erosion (surface area of erosion) versus vehicle control (male Wistar rats; 1 mg/kg orally BID): 40.5%
- rats in the treatment group that exhibited no cartilage erosion (male Wistar rats; 1 mg/kg orally BID): 5/12
- inhibition of cartilage erosion (surface area of erosion) versus vehicle control (male Wistar rats; 3 mg/kg orally BID): 55.6%
- rats in the treatment group that exhibited no cartilage erosion (male Wistar rats; 3 mg/kg orally BID, p<0.05 versus vehicle): 7/12
- inhibition of cartilage erosion (surface area of erosion) versus vehicle control (male Wistar rats; 10 mg/kg orally BID): 61.6%
- rats in the treatment group that exhibited no cartilage erosion (male Wistar rats; 10 mg/kg orally BID, p<0.05 versus vehicle): 7/12
- inhibition of cartilage erosion (surface area of erosion) versus vehicle control (male Wistar rats; 30 mg/kg orally BID): 32.9%
- rats in the treatment group that exhibited no cartilage erosion (male Wistar rats; 30 mg/kg orally BID): 4/12
